This note sets out measurements from ChEMBL document CHEMBL4219088, “Novel 4-aminoquinazoline derivatives induce growth inhibition, cell cycle arrest and apoptosis via PI3Kα inhibition” (Bioorg Med Chem, 2018).

A word on the IC50: it is the concentration at which inhibition is half-maximal.

The test system of assay [1] is HCT-116. The experiment in a line: Cell cycle arrest in human HCT116 cells assessed as accumulation at S phase at 2 uM after 24 hrs by propidium iodide staining based flow cytometry (reference value: 11.36%). In kind it is functional. Background: In flow cytometry, cells or beads pass a laser one at a time.
Assay [2] has as its target Phosphatidylinositol 4,5-bisphosphate 3-kinase catalytic subunit alpha isoform (Homo sapiens) (UniProt P42336). The experiment in a line: Inhibition of PI3Kalpha phosphorylation in human HCT116 cells at 0.5 to 2 uM after 24 hrs by Western blot analysis. In kind it is cell-based. (In general: In western blotting, separated proteins are transferred to a membrane and probed.)

Assay [3] has as its system HCT-116. The experiment in a line: Induction of apoptosis in human HCT116 cells assessed as late apoptotic cells at 2 uM after 48 hrs by Annexin V-FITC/propidium iodide staining based flow cytometry (reference value: 1.43%). The assay is classed as functional.
The test system of assay [4] is HCT-116. The experiment in a line: Cell cycle arrest in human HCT116 cells assessed as accumulation at G0/G1 phase at 0.5 uM after 24 hrs by propidium iodide staining based flow cytometry (reference value: 44.01%). In kind it is functional.
The test system of assay [5] is HCT-116. As to the kind of experiment: Cell cycle arrest in human HCT116 cells assessed as accumulation at G0/G1 phase at 2 uM after 24 hrs by propidium iodide staining based flow cytometry (reference value: 44.01%). In kind it is functional.
For assay [6], the system named is HCT-116. The experiment in a line: Induction of apoptosis in human HCT116 cells assessed as decrease in Bcl-2 level at 1 to 4 uM after 48 hrs by Western blot analysis. In kind it is functional, cell-based.
Assay [7] addresses Phosphatidylinositol 4,5-bisphosphate 3-kinase catalytic subunit alpha isoform (Homo sapiens) (UniProt P42336). As to the kind of experiment: Inhibition of PI3Kalpha in human HCT116 cells assessed as reduction in Akt phosphorylation at Ser473 residues after 24 hrs by Western blot analysis. In kind it is cell-based.
For assay [8], the target named is PI3-kinase p110-delta/p85-alpha (Homo sapiens, UniProt O00329). The experiment in a line: Inhibition of recombinant N-terminal full length human PI3K p110delta/recombinant untagged full length human p85alpha expressed in baculovirus infected Sf21 insect cells by ELISA.
In the next assay the target is PI3K p110 beta/p85 alpha (Homo sapiens, UniProt P42338). As to the kind of experiment: Inhibition of N-terminal His6-tagged recombinant full-length PI3Kbeta (unknown origin)/untagged recombinant full length p85alpha expressed in baculovirus infected Sf21 insect cells by ELISA.
In assay [9] the test system is HCT-116. The experiment in a line: Upregulation of p27 protein expression in human HCT116 cells at 0.5 to 2 uM after 24 hrs by Western blot analysis. In kind it is functional, cell-based.
Assay [10] relates to HCT-116. The experiment in a line: Cell cycle arrest in human HCT116 cells assessed as accumulation at subG1 phase at 0.5 uM after 24 hrs by propidium iodide staining based flow cytometry (reference value: 2.25%). The assay is classed as functional.
The subject of assay [11] is HCT-116. The experiment in a line: Downregulation of CDK2 protein expression in human HCT116 cells at 0.5 to 2 uM after 24 hrs by Western blot analysis. In kind it is functional, cell-based.
The test system of a further assay is HEK293. As to the kind of experiment: Antiproliferative activity against HEK293 cells after 72 hrs by sulforhodamine B assay. The assay is classed as cell-based. The note with it: Homo sapiens, HEK293, 72 h.
In assay [12] the test system is HCT-116. The experiment in a line: Induction of apoptosis in human HCT116 cells assessed as late apoptotic cells at 1 uM after 48 hrs by Annexin V-FITC/propidium iodide staining based flow cytometry (reference value: 1.43%). The assay is classed as functional.
Assay [13] has as its system HCT-116. The experiment in a line: Antiproliferative activity against human HCT116 cells after 72 hrs by sulforhodamine B assay. The assay is classed as functional, cell-based. The note with it: HCT-116, 72 h.

Activity calls are given as the source filed them. The calls are words filed in the database; no cut-off is given here.

Sequence of Phosphatidylinositol 4,5-bisphosphate 3-kinase catalytic subunit alpha isoform (Homo sapiens) (P42336 whole entry, canonical isoform): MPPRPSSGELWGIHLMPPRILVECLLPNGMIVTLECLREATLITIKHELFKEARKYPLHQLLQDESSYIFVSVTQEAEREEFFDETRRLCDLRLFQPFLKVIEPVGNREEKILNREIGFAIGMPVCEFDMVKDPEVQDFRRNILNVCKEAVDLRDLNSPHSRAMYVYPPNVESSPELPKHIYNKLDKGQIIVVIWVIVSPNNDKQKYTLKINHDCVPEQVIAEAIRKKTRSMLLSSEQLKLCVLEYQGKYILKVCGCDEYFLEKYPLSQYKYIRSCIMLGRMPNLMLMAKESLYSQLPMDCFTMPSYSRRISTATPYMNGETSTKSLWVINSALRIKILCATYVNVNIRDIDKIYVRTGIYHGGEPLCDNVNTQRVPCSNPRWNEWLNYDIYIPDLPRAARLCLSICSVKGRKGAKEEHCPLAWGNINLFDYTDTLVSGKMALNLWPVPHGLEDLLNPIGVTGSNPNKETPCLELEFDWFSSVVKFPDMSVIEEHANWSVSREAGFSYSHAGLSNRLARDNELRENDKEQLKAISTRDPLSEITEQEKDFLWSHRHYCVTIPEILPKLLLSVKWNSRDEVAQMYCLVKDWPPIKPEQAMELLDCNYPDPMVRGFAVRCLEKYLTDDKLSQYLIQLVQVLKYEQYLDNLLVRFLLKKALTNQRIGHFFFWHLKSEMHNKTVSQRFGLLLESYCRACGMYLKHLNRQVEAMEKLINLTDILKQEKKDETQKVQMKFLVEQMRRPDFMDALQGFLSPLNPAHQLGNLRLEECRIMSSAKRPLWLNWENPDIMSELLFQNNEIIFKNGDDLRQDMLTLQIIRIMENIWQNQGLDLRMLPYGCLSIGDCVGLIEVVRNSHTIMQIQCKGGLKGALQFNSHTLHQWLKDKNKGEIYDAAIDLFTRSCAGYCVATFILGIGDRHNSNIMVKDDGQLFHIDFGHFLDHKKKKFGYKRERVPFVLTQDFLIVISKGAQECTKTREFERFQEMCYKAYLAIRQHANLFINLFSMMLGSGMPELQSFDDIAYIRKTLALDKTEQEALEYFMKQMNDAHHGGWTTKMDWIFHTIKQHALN
Sequence of PI3-kinase p110-delta/p85-alpha (P27986 whole entry): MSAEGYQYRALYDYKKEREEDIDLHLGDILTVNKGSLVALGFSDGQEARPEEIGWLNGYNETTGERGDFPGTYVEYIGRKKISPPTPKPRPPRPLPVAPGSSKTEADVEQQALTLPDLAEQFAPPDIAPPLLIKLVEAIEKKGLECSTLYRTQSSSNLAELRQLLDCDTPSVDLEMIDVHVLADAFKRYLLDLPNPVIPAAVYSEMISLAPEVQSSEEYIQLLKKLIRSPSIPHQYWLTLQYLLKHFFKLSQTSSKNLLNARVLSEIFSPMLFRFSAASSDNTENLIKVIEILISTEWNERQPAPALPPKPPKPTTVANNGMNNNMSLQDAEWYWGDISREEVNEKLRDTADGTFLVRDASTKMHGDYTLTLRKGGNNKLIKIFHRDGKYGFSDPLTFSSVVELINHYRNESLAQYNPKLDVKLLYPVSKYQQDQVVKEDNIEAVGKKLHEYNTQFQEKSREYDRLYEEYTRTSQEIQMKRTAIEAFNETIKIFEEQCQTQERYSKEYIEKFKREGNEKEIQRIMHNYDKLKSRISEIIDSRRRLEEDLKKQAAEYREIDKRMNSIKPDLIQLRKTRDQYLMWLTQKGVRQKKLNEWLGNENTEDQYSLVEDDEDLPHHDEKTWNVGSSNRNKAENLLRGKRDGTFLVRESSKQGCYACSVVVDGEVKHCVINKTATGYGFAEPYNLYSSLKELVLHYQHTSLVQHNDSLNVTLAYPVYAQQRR
Sequence of PI3-kinase p110-delta/p85-alpha (O00329 whole entry): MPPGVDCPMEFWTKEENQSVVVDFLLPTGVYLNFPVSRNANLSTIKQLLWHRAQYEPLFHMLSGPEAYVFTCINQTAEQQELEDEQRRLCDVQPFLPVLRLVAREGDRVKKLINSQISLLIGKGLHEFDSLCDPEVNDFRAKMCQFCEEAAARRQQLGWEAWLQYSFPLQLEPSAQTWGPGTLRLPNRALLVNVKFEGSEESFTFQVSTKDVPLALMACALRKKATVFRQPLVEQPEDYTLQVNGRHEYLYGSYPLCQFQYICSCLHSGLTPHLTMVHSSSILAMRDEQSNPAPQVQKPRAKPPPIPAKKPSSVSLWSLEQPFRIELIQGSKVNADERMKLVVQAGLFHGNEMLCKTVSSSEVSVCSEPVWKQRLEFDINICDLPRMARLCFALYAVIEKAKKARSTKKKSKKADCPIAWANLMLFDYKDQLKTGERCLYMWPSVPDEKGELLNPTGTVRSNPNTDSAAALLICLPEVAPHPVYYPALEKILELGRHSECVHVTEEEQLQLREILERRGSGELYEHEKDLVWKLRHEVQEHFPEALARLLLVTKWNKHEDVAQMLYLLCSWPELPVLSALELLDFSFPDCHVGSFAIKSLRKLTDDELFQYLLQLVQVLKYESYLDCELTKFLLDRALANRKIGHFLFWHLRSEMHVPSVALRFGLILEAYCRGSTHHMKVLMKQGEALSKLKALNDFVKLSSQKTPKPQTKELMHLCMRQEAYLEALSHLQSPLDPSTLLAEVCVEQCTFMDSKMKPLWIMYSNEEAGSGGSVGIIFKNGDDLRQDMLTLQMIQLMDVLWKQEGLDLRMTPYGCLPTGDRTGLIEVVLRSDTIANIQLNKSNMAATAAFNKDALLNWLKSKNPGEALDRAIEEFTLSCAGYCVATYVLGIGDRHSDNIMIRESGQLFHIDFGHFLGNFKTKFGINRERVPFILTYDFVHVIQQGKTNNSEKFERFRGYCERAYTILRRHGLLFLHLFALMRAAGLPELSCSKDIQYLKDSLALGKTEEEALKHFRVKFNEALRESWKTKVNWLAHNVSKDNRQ
Sequence of PI3K p110 beta/p85 alpha (P27986 whole entry): as the sequence (P27986 whole entry) above
Sequence of PI3K p110 beta/p85 alpha (P42338 whole entry): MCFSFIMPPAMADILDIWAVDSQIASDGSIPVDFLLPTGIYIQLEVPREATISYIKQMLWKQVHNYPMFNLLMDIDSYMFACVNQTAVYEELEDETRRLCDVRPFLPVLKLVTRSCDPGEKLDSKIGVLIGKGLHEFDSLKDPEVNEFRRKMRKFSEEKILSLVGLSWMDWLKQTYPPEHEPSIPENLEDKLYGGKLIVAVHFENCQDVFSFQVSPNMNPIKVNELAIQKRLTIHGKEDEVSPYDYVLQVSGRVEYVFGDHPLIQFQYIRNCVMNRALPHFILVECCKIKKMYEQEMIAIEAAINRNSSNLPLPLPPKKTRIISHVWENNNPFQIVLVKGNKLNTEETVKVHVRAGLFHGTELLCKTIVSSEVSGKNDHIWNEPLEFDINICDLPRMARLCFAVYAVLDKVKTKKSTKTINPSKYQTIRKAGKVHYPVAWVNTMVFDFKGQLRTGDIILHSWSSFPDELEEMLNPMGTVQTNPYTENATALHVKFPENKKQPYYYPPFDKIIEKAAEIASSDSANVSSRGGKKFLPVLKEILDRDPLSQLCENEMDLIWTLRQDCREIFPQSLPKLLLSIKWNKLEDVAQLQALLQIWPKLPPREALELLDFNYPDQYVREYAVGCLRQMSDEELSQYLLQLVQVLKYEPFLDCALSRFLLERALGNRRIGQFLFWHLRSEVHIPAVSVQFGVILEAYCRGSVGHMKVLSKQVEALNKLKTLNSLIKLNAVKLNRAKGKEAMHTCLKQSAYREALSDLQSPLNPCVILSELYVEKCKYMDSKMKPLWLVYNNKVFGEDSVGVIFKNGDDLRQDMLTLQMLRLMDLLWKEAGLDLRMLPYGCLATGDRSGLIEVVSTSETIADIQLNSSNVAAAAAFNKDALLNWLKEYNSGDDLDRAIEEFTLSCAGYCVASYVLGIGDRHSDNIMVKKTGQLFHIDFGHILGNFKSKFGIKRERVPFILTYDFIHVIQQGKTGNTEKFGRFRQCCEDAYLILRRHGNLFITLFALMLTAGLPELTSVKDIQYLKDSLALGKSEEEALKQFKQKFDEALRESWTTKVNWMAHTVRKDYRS

Take `CCCCS(=O)(=O)Nc1cc(-c2ccc3ncnc(NCCN(C)C)c3c2)cnc1OC`: the Activity in the assay with HCT-116 [1] is 13.65%; in the assay with HCT-116 [3] it was 3.7%; with HCT-116 [4], 46.16%; with HCT-116 [5] it was 61.01%; in the assay with HCT-116 [10], 3.57%; in the assay on HCT-116 [12] it was 2.89%. The inhibition result in assay [2] is “Active”. Moreover, the outcome in the assay on HCT-116 [6], with HCT-116 [9] and in the assay with HCT-116 [11] was Active. Further, the inhibition entry in assay [7] is “Dose-dependent effect”. Moreover, the IC50 amounted to 102 nM in assay [8], 396 nM on PI3K p110 beta/p85 alpha, 12.6 µM in the assay with HEK293 and 160 nM in the assay on HCT-116 [13].
